Test results: PMC8845285, “Serotoninergic receptor ligands improve Tamoxifen effectiveness on breast cancer cells” (BMC Cancer, 2022)

Legend:
Format in all cases: cell-based, human
MCF7-R cells = assay: Tamoxifen-resistant MCF7-R cell viability, sulforhodamine B assay; conditions: SER 20 μM; for effect on MCF7-R cells if used alone (viability): E2 100 nM, 72 h; for effect on viability of MCF7-R cells in co-treatment with Tamoxifen: Tamoxifen 5 μM, E2, 72 h
Protocol: Cells were fixed with 50% trichloroacetic acid for at least 2 h at 4 °C, washed with distilled and de-ionized water, air-dryed and stained 30 min with 0.4% sulforhodamine B in 1% acetic acid. Unbound dye was removed and 10 mM tris-HCl solution (pH 7.5) was added to dissolve the protein-bound dye. Cell survival was assessed by optical density determination at 510 nm using a microplate reader.
MCF7 cells were cultured for 4 months in phenol-red free medium supplemented with 10% (C/S) FBS and continuously exposed to Tamoxifen (1 μM). […] To further validate the degree of drug resistance, the expression levels of ABCC1, ABCG1 and ABCG2 – members of ABC transporter family known as involved in multi-drug resistance – were evaluated by Quantitative Real-Time PCR (qPCR; see below) upon cell treatment with 5 μM Tamoxifen for 72 h.
Fig. 9 Effect of SER79 and SER68 on Tamoxifen-resistant (MCF7-R) cells. a Estrogen starved MCF7-R were treated with SER79 (20 μM, 5 μM) or SER68 (20 μM) in presence of E2 (100 nM). b Estrogen-starved MCF7-R were treated with Tamoxifen (5 μM) in presence of E2 and SER79 (20 μM) or SER68 (20 μM). a,b As positive control, the cells were treated with E2 alone, in absence or in presence of SER (dotted line). After 72 h, cell viability was assessed by sulforhodamine B assay (see Methods). The results were reported as percentage of viable cells compared to positive control, considered as maximum viability (100%). c mRNA levels of CTGF were determined by qPCR (see Methods and Table 1) in MCF7-R cells upon treatment with SER68 (20 μM). Data were normalized on Ribosomal Protein S23 (Rps23) gene as internal standard and reported as CTGF mRNA levels in MCF7-R. a-c Graphs represent the mean ± SD of at least three independent triplicate experiments. * denotes statistically significant values compared with (b) positive control or (c) MCF7 cells (*adjp<0.05; **adjp<0.001). # denotes statistically significant values compared with untreated MCF7-R (#pval<0.05) […]
Figure S3. Establishment of MCF7 Tamoxifen re sista n t(M C F7-R) cells. MCF7 cells were cultured with Tamoxifen (1µM), in absence of E2, for 4 months (M C F7-R). (a-b) MCF7 and MCF7-R cells were treated with in c re a s in gconcentration of Tamoxifen […]
As positive control, cells were treated with E2 alone. Cell viability was measured by sulforhodamine B assay (se e Methods). The re su ltswere re p o rte das percentage of viable cells compared to untreated cells, considered as maximum viability (100%). […]
(a ) * denotes statistically significant values compared with untreated cells […]
(§1) (1 picture or pasted object on this page, not shown here)

HT2C receptor = assay: 5-HT2C protein levels, Western blot; conditions: 72 h, MCF7, Tamoxifen-cultured MCF7 and MCF7-R cells
Protocol: RIPA buffer (Promega, Madison, Wisconsin, USA) was used for proteins’ extraction. Lysates ([…] protein/sample) were blotted with anti-5HT2C (1:500). Total lysates were normalized using anti-Vinculin (1:10000). The autoradiographs shown were obtained by ECL kit (Bio-Rad, Hercules, CA, USA).
Figure S4. 5-HT2C protein in MCF7, Tamoxifen-cultured MCF7 and MCF-R cells in absence or in presence of SER.
Cells were treated with 5µM SER79 or 20µM SER68. Alter 72h, cell lysa te swere obtained and 5-HT2C protein le ve lswere measured by western blot analysis. Vinculin was used for protein le ve ls normalization. […]
as §1

MCF10A cells = assay: MCF10A non-cancer breast epithelial cell viability, sulforhodamine B assay; conditions: 72 h
Protocol: MCF7 (ER^+, PR^+, HER2^−), SKBR3 (ER^−, PR^+, HER2^+) and MDA-MB231 (ER^−, PR^−, HER2^−) human BC cells and MCF10A non-cancer breast epithelial cells were available in our laboratory. MCF7, SKBR3 and MDA-MB231 cells were cultured in DMEM, supplemented with 10% FBS, 2 mM glutamine, 100 units/ml penicillin and 100 units/ml streptomycin. MCF10A cells were cultured in MEBM, supplemented with 0.4% BPE, 0.1% hEGF, 0.1%, Insulin, 0.1% Hydrocortisone and 0.1% GA-1000. Cultures were maintained in a humidified atmosphere of 95% air and 5% CO2 at 37 °C. Treatment with SER were carried out in culture conditions. […]
Cells were fixed with 50% trichloroacetic acid for at least 2 h at 4 °C, washed with distilled and de-ionized water, air-dryed and stained 30 min with 0.4% sulforhodamine B in 1% acetic acid. […] Cell survival was assessed by optical density determination at 510 nm using a microplate reader.
Fig. 7 Effect of low doses of SER79 and SER68 on MCF7 and MCF10A cells. a Estrogen-starved MCF7 cells (48 h) were treated with Tamoxifen (5 μM) in presence of E2 (100nM) and SER79 (5 μM) or SER68 (20 μM, 5 μM). […] After 72 h, cell viability was assessed by sulforhodamine B assay (see Methods). […] After 72 h, mRNA levels of CTGF were determined by qPCR (see Methods and Table 1). […] After 72 h, cell viability was assessed by sulforhodamine B assay (see Methods). […]

Row | SMILES | effect on MCF7-R cells if used alone (viability) (MCF7-R cells) | effect on viability of MCF7-R cells in co-treatment with Tamoxifen (MCF7-R cells) | change in protein levels of HT2C receptors upon SER treatment (HT2C receptor; 20 µM) | effect on MCF10A cell viability (MCF10A cells; 20 μM) | change in protein levels of HT2C receptors upon SER treatment (HT2C receptor; 5 µM) | effect on MCF10A cell viability (MCF10A cells; 5 μM)
1 | O=C1C2C3C=CC(C3)C2C(=O)N1OCCN1CCN(c2ccc(Cl)c(Cl)c2)CC1 (centres unmarked) [SER68] | neither | significantly reduced viability | no difference in protein levels | No effect was detected on cell viability |  | 
2 | N#CN=C(NCCCN1CCN(C(c2ccc(F)cc2)c2ccc(F)cc2)CC1)c1ccccn1 [SER79] | neither | No significant effect |  |  | no difference in protein levels | No effect was detected on cell viability
